Measured values taken from patent publication US20260265195A1, “SARM1 MODULATORS, PREPARATIONS, AND USES THEREOF” (SIRONAX LTD, priority 2022, published 2026).

Biological target: T1, SARM1 (50-724) (Homo sapiens, UniProt Q6SZW1)
T1 construct: Purified SARM1 (50-724) with a final concentration of 2 nM
T1 sequence (Q6SZW1 50-724): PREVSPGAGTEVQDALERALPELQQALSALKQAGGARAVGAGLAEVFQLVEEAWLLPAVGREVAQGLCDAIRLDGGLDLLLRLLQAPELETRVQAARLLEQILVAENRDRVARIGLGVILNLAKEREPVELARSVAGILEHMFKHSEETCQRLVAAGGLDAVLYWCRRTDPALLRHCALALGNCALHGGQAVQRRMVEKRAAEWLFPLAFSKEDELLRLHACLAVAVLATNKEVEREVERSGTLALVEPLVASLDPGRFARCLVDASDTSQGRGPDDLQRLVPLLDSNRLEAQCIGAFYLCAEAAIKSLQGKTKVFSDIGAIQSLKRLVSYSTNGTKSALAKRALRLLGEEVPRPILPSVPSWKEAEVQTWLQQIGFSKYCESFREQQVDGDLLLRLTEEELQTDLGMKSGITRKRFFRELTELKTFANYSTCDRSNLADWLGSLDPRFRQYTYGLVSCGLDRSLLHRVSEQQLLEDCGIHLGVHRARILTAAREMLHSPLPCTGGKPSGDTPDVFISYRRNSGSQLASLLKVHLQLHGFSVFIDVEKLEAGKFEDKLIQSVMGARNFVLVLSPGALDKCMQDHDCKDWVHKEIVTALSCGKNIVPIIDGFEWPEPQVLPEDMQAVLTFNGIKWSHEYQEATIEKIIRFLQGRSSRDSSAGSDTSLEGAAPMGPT
Assay: SARM1 (50-724) enzymatic assay (NMN-activated NAD+ hydrolysis, LC-MS/MS readout)
Assay type: biochemical
Details: purified SARM1 (50-724) 2 nM, 200 μM NMN activator, 100 μM NAD+ substrate, 1 h at room temperature, read-out: IC50 (SARM1 inhibitory activity)
How it was run: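 Purified human SARM1 (50-724), 2 nM final in DPBS, pre-incubated 15 min at RT with compound (1% DMSO), then started with 200 μM NMN activator and 100 μM NAD+. After 1 h at RT, quenched with 70% acetonitrile; analysed by LC-MS/MS.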

Compound	IC50
CN(C(=O)c1nc2ccccc2o1)C1CCCC1 [Compound 56, N-cyclopentyl-N-methylbenzo[d]oxazole-2-carboxamide]	≥ 1000 nM
Cc1ccc2[nH]c(C(=O)N(C)C3CCCC3)c(CNc3ccccn3)c2c1 [Compound 82, N-cyclopentyl-N,5-dimethyl-3-((pyridin-2-ylamino)methyl)-1H-indole-2-carboxamide]	101 to 500 nM
O=C1CCCN1CCN(C(=O)c1nc2ccc(C(F)(F)F)cc2[nH]1)c1cccc(Cl)c1Cl [Compound 165, N-(2,3-dichlorophenyl)-N-(2-(2-oxopyrrolidin-1-yl)ethyl)-6-(trifluoromethyl)-1H-benzo[d]imidazole-2-carboxamide]	501 to 1000 nM
Cc1ccc2[nH]c(C(=O)N(C)C3CCCC3)c(CNc3nccs3)c2c1 [Compound 76, N-cyclopentyl-N,5-dimethyl-3-((thiazol-2-ylamino)methyl)-1H-indole-2-carboxamide]	101 to 500 nM
O=C(c1nc2cc(C(F)(F)F)ccc2[nH]1)N(CC(F)(F)CO)c1cc(F)c(F)cc1Cl [Compound 220, N-(2-chloro-4,5-difluorophenyl)-N-(2,2-difluoro-3-hydroxypropyl)-5-(trifluoromethyl)-1H-benzo[d]imidazole-2-carboxamide]	101 to 500 nM
Cc1ccc2[nH]c(C(=O)N(CCO)c3cccc(Cl)c3Cl)nc2c1 [Compound 50, N-(2,3-dichlorophenyl)-N-(2-hydroxyethyl)-5-methyl-1H-benzo[d]imidazole-2-carboxamide]	≥ 1000 nM
O=C(c1nc2cc(C(F)(F)F)ccc2[nH]1)N(CC1CNC1)c1cccc(Cl)c1Cl [Compound 114, N-(azetidin-3-ylmethyl)-N-(2,3-dichlorophenyl)-5-(trifluoromethyl)-1H-benzo[d]imidazole-2-carboxamide]	101 to 500 nM
O=C(c1nc2cc(C(F)(F)F)ccc2[nH]1)N(CCN1CCC1)c1cccc(Cl)c1Cl [Compound 149, N-(2-(azetidin-1-yl)ethyl)-N-(2,3-dichlorophenyl)-6-(trifluoromethyl)-1H-benzo[d]imidazole-2-carboxamide]	101 to 500 nM
Cc1ccc2[nH]c(C(=O)N(C)C3CC4CC4C3)nc2c1 (stereo not drawn) [Compound 53, N-(bicyclo[3.1.0]hexan-1H-benzo[d]imidazole-2-carboxamide]	≥ 1000 nM
O=C(c1nc2cc(C(F)(F)F)ccc2[nH]1)N(CC(F)(F)CO)c1cc(F)ccc1Cl [Compound 219, N-(2-chloro-5-fluorophenyl)-N-(2,2-difluoro-3-hydroxypropyl)-5-(trifluoromethyl)-1H-benzo[d]imidazole-2-carboxamide]	101 to 500 nM
Cc1ccc2[nH]c(C(=O)N3CCCCC3)c(CNc3ccccn3)c2c1 [Compound 87, (5-methyl-3-((pyridin-2-ylamino)methyl)-1H-indol-2-yl)(piperidin-1-yl)methanone]	≥ 1000 nM
Cc1c[nH]c(-c2ccc3[nH]c(C(=O)N(CCO)c4cccc(Cl)c4Cl)nc3c2)n1 [Compound 154]	≥ 1000 nM
CN(C(=O)c1nc2cc(C(F)(F)F)ccc2[nH]1)c1ccncc1OC(F)(F)F [Compound 237, N-methyl-N-(3-(trifluoromethoxy)pyridin-4-yl)-5-(trifluoromethyl)-1H-benzo[d]imidazole-2-carboxamide]	501 to 1000 nM
Cc1ccc2[nH]c(C(=O)N(C)c3cccc(Cl)c3Cl)c(CNc3nc(C(N)=O)c(C(C)C)s3)c2c1 [Compound 74, 2-(((2-((2,3-dichlorophenyl)(methyl)carbamoyl)-5-methyl-1H-indol-3-yl)methyl)amino)-5-isopropylthiazole-4-carboxamide]	≤ 100 nM
Cc1ccc2[nH]c(C(=O)N(C)C3CCN(C)CC3)c(CNc3ccccn3)c2c1 [Compound 86, N,5-dimethyl-N-(1-methylpiperidin-4-yl)-3-((pyridin-2-ylamino)methyl)-1H-indole-2-carboxamide]	≥ 1000 nM
CN(C(=O)c1nc2c([nH]1)CCCC2)C1CCCC1 [Compound 58, N-cyclopentyl-N-methyl-4,5,6,7-tetrahydro-1H-benzo[d]imidazole-2-carboxamide]	≥ 1000 nM
CC(C)(O)c1ccc2[nH]c(C(=O)N(CC3(F)COC3)c3cccc(Cl)c3Cl)nc2c1 [Compound 183]	≤ 100 nM
O=C1NC(CN(C(=O)c2nc3cc(C(F)(F)F)ccc3[nH]2)c2cccc(F)c2Cl)CO1 (racemic) [Compound 238, N-(2-chloro-3-fluorophenyl)-N-((2-oxooxazolidin-4-yl)methyl)-5-(trifluoromethyl)-1H-benzo[d]imidazole-2-carboxamide]	≤ 100 nM
COc1cc(OC)c2c(CO)c(C(=O)N(C)C3CCCC3)[nH]c2c1 [Compound 34, N-cyclopentyl-3-(hydroxymethyl)-4,6-dimethoxy-N-methyl-1H-indole-2-carboxamide]	≥ 1000 nM
CC(C)(O)CCN(C(=O)c1nc2cc(C(F)(F)F)ccc2[nH]1)c1cccc(Cl)c1Cl [Compound 198, N-(2,3-dichlorophenyl)-N-(3-hydroxy-3-methylbutyl)-5-(trifluoromethyl)-1H-benzo[d]imidazole-2-carboxamide]	≤ 100 nM

Second part, the compound after the results:

IC50	Compound
≤ 100 nM	CS(=O)(=O)CCN(C(=O)c1nc2cc(C(F)(F)F)ccc2[nH]1)c1cccc(F)c1Cl [Compound 229, N-(2-chloro-3-fluorophenyl)-N-(2-(methylsulfonyl)ethyl)-5-(trifluoromethyl)-1H-benzo[d]imidazole-2-carboxamide]
≤ 100 nM	Cc1c(Cl)cccc1N(C)C(=O)c1nc2cc(C(F)(F)F)ccc2[nH]1 [Compound 118, N-(3-chloro-2-methylphenyl)-N-methyl-5-(trifluoromethyl)-1H-benzo[d]imidazole-2-carboxamide]
≤ 100 nM	CN(C(=O)c1nc2cc(C(F)(F)F)ccc2[nH]1)C1CCCC1 [Compound 48, N-cyclopentyl-N-methyl-5-(trifluoromethyl)-1H-benzo[d]imidazole-2-carboxamide]
≤ 100 nM	C=C(c1cn[nH]c1)c1ccc2[nH]c(C(=O)N(CCO)c3cccc(Cl)c3Cl)nc2c1 [Compound 187]
≤ 100 nM	CS(=O)(=O)CCCN(C(=O)c1nc2cc(C(F)(F)F)ccc2[nH]1)c1cccc(Cl)c1Cl [Compound 129, N-(2,3-dichlorophenyl)-N-(3-(methylsulfonyl)propyl)-5-(trifluoromethyl)-1H-benzo[d]imidazole-2-carboxamide]
≤ 100 nM	O=C(c1nc2cc(C(F)(F)F)ccc2[nH]1)N(CC1(F)COC1)c1cccc(Cl)c1Cl [Compound 135, N-(2,3-dichlorophenyl)-N-((3-fluorooxetan-3-yl)methyl)-5-(trifluoromethyl)-1H-benzo[d]imidazole-2-carboxamido]
≤ 100 nM	Cc1ccc2[nH]c(C(=O)N(C)C3CCCC3)c(C(N)=O)c2c1 [Compound 96, N2-cyclopentyl-N2,5-dimethyl-1H-indole-2,3-dicarboxamide]
≤ 100 nM	O=C(c1nc2c(F)c(Cl)ccc2[nH]1)N(CC(F)(F)CO)c1cccc(F)c1Cl [Compound 236]
≤ 100 nM	CC(C)(CO)c1ccc2[nH]c(C(=O)N(CC3(F)COC3)c3cccc(Cl)c3Cl)nc2c1 [Compound 205]
≤ 100 nM	Cc1cccc(N(C)C(=O)c2nc3cc(C(F)(F)F)ccc3[nH]2)c1Cl [Compound 125, N-(2-chloro-3-methylphenyl)-N-methyl-5-(trifluoromethyl)-1H-benzo[d]imidazole-2-carboxamide]
